Data on 6 compounds can be found in PMC8647151, “PLK1‐dependent phosphorylation restrains EBNA2 activity and lymphomagenesis in EBV‐infected mice” (EMBO Reports, 2021).

Several values for one entry are separate records, joined by “and”; a condition that tells them apart may be missing. Equal entries are not always repeated. Where a SMILES comes first, the peptide text is derived from it. [ ]: non-standard residue; d: D form. pS = N[C@@H](COP(=O)(O)O)C(=O)O

Test [1] has as its target T1, PLK1 PBD (PLK1 residue 345‐603) (Homo sapiens, UniProt P53350).
T1 construct: His6 (N); made in house; host or cells: E. coli Rosetta (DE3)
As to the kind of experiment: Isothermal titration calorimetry of EBNA2 heptapeptides with PLK1 PBD. The format is binding. To be noted: ITC200, 100 µM PBD in the cell titrated with 1 mM peptide, 25°C, triplicates. On the procedure: PLK1 frequently binds to phosphorylated substrates that are primed by cellular kinases like Cyclin B/CDK1. These substrates share a consensus motif [Pro/Phe]‐[Φ/Pro]‐[Φ]‐[Thr/Gln/His/Met]‐Ser‐[pThr/pSer]‐[Pro/X] (Φ represents hydrophobic and X represents any residue) specific for binding to the Polo‐box binding domain (PBD) of PLK1 (Elia et al, [2003a]). […] Mutants involving the respective residues were tested for PLK1 binding by transfection and co‐precipitation. […] To specify the contribution of EBNA2 residue S379 phosphorylation, a heptapeptide (PNTSSPS) and phospho‐heptapeptide (PNTSpSPS) were tested for PBD (PLK1 residue 345‐603) binding by isothermal titration calorimetry (ITC). […] GST‐EBNA2 342–422 expressed and purified from bacterial extracts did hardly pulldown any PLK1 from cellular extracts. […] Also, as shown by transfection, EBNA2 S379A binding to PLK1 was severely impaired (Fig 2H). We conclude that EBNA2 residue S379 is a PLK1 docking site primed by Cyclin B/CDK1 phosphorylation.
Experiments were performed on a ITC200 instrument in triplicates and analyzed with the Malvern software. 100 µM PBD was provided in the cell and titrated with 1 mM concentration of wild type (PNTSSPS) or phosphopeptide (PNTSpSPS) with 25 times 1.5 µl injections at 25°C.
For orientation: Isothermal titration calorimetry measures the heat released or taken up as one component is titrated into another.

Test [2] relates to PLK1. As to the kind of experiment: Kinase assay on EBNA2/PLK1 co-precipitates with endogenous PLK1. The format is biochemical. To be noted: Volasertib 40 nM, [γ-32P] ATP. As to the method: Monoclonal antibodies specific for His6 (2F12), EBNA2 (R3), glutathione S transferase (6G9), HA‐tag (3F10), BSA (3C5), and LMP1 (1G6) were provided by the antibody facility of the Helmholtz Center Munich. Commercial providers were as follows: GAPDH (Mab374; Merck Millipore), Flag (M2; Sigma‐Aldrich), PLK1 (ab17056; Abcam), GFP (7.1 and 13.1; Roche), and a p300‐specific serum (C20; Santa Cruz). For immunoprecipitations and Western blotting, the equivalent of 1 × 10^7 cells was lysed in 500 µl of lysis buffer (1% NP‐40, 10 mM Tris–HCl pH 7.4, 3% glycerol, 150 mM NaCl, 1 mM EDTA) supplemented with cOmplete protease inhibitor and PhoStop phosphatase inhibitor (Roche) incubated for 30 min at 4°C with constant rolling and for 30 min on ice. The lysate was cleared by centrifugation (16,000 g, 15 min). 1 µg of purified antibodies or 100 µl of hybridoma supernatants was coupled to Protein A or G beads and added to the cleared lysates, incubated for 2 h at 4°C, and washed with lysis buffer, and the protein was eluted with Laemmeli buffer. For GST‐pulldown, antibody‐coated beads were replaced by GST fusion protein‐coated beads. 20 µg protein of total cell lysates or 5 × 10^6 cell equivalents of one immunoprecipitation were loaded per lane. Signals on Western blots were detected by enhanced chemiluminescence (GE Healthcare) and exposed to films or Fusion FX (Vilber Lourmat). […]

Test [3] deals with PLK1 polo-box domain (PBD), PLK1 residue 345-603 (UniProt P53350). Put plainly: ITC; ITC200; 100 µM PBD in the cell titrated with 1 mM peptide, 25 injections of 1.5 µl, 25°C, triplicates.
Test [4] addresses GST-EBNA2 446-474 double-mutant S457A/T465V (Epstein-Barr virus (B95-8)) (UniProt P12978). As to the kind of experiment: pull-down; GST-EBNA2 446-474 (wt or phosphorylation mutants) on beads as bait; cellular proteins from DG75 cells; Western blot with GST- and p300-specific antibodies, signals quantified and normalized to wt. Background: In western blotting, separated proteins are transferred to a membrane and probed.

For test [5], the target named is polo-like kinase 1 (PLK1) (UniProt P53350). Put plainly: GST pull-down from cell extract. To be noted: reference: wild type, Cyclin B/CDK1 treated; sites S379.

For orientation: Kd means a measure of binding affinity in units of concentration. In the case of `C[C@@H](O)[C@H](NC(=O)[C@H](CC(N)=O)NC(=O)[C@@H]1CCCN1)C(=O)N[C@@H](CO)C(=O)N[C@@H](COP(=O)(O)O)C(=O)N1CCC[C@H]1C(=O)N[C@@H](CO)C(=O)O` [PNTSpSPS] (H-PNTS[pS]PS-OH), the Kd in test [1] (25 x 1.5 µl injections, read-out: dissociation constant KD) is 8.19 µM.
On to `CC[C@@H]1C(=O)N(C)c2cnc(Nc3ccc(C(=O)N[C@H]4CC[C@H](N5CCN(CC6CC6)CC5)CC4)cc3OC)nc2N1C(C)C` [Volasertib], for which, in test [2] (EBNA2 mutants expressed in DG75 B cells, endogenous PLK1 trapped in precipitates), the “phosphorylation of EBNA2 wt and candidate phosphorylation mutants in immunoprecipitates” value was “prevented phosphorylation of all EBNA2 proteins”. Further, in test [2] (co-precipitates from DG75 Dox HA-EBNA2 cells, 30 min, 37°C), the “EBNA2 phosphorylation in co-precipitates of EBNA2 and endogenous PLK1” value is on record as “prevented”.
As a reminder, the stoichiometry N is a count of units in the complex or per binding partner. EBNA2 phospho-heptapeptide PNTSpSPS: the stoichiometry N in test [3] was 1.
Regarding “histone acetylase and co-activator p300, endogenous, Q09472 1-2414”, in test [4], the fold p300 binding relative to wt was 8 fold and 9 fold.
On to “EBNA2 (EBV nuclear antigen 2) 342-422 (from UniProt P12978) S379A, Cyclin B/CDK1 treated”, for which the “binding against the reference” value in test [5] was “lost”.
Regarding “PNTSSPS [unmodified heptapeptide of EBNA2 covering residue S379]”, the “PBD binding by ITC” value in test [1] was “no interaction was detected”.
